By AC50 is commonly meant the concentration giving half of the maximal activity seen. One may read the IC50 as the midpoint of a concentration-inhibition curve. What is called GI50 is the concentration that inhibits growth by half.

Holding throughout (format): cell-based
For experiment [1], the system named is HTT mRNA. The experiment is described as follows: Splicing RT-qPCR assay (THP), Table 2A. Conditions: Table 2A, THP; for AC50: HTT alternative junction (AJ) mRNA, read-out: HTT AJ (AC50, increase in alternative junction mRNA); for IC50: HTT canonical junction (CJ) mRNA, read-out: HTT CJ (IC50, decrease in canonical junction mRNA). (Quantitative PCR measures a nucleic acid by following its amplification.)

Experiment [2] concerns MYB mRNA. As to the kind of experiment: Splicing RT-qPCR assay (THP), Table 2A. Conditions: Table 2A, THP; for AC50: MYB alternative junction (AJ) mRNA, read-out: MYB AJ (AC50, increase in alternative junction mRNA); for IC50: MYB canonical junction (CJ) mRNA, read-out: MYB CJ (IC50, decrease in canonical junction mRNA).
In experiment [3] the test system is HTT mRNA. As to the kind of experiment: Gene panel canonical junction qPCR assay, decrease in CJ mRNA, Table 3. Conditions: decrease in CJ mRNA levels, canonical junction qPCR, gene panel. In outline: (§1)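 IC50 is the concentration giving 50% response in decrease of the canonical junction transcript, fitted with a 4-parameter logistic equation. Transcripts were quantified by RT-qPCR in A673 or K562 cells after 24 h exposure to compounds dosed up to 10 uM in 3-fold steps.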

For experiment [4], the system named is MYB mRNA. The experiment is described as above. The conditions noted are these: decrease in CJ mRNA levels, canonical junction qPCR, gene panel. In a few lines:
as §1

Experiment [5] relates to SH-SY5Y (human neuroblastoma) cells. The experiment is described as follows: Cell viability, Cell Titer Glo 2.0 assay. The conditions noted are these: read-out: Viability SHSY5Y.3 GI50. In outline: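 Steps: serial DMSO dilution of compound, 1:100 dilution into medium, addition to cells (0.1% DMSO final). Incubate 72 h at 37 °C, 5% CO2. Assay with CellTiter-Glo 2.0 reagent.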

`CCNC1CCN(c2cc(F)c(C(=O)Nc3cn4ccnc4nc3OC)c3nn(C)cc23)CC1` [Compound 692, 4-[4-(ethylamino)-1-piperidyl]-6-fluoro-N-(7-methoxyimidazo[1,2-a]pyrimidin-6-yl)-2-methyl-indazole-7-carboxamide]: the AC50 is 100 to 1000 nM in experiment [1] and < 100 nM in experiment [2]. Further, the half-maximal inhibitory concentration (IC50) is 1000 to 10000 nM in experiment [1], < 100 nM in experiment [2], 1000 to 10000 nM in experiment [3] and < 100 nM in experiment [4]. Besides, the GI50 in experiment [5] was in the range of 1000 to 10000 nM.

On to `Cc1cn2cc(NC(=O)c3ccc(N4CCC(NC5CC5)CC4)c4cn(C)nc34)nc2c(CNS(C)(=O)=O)n1` [Compound 694, 4-(4-(cyclopropylamino)piperidin-1-yl)-2-methyl-N-(6-methyl-8-(methylsulfonamidomethyl)imidazo[1,2-a]pyrazin-2-yl)-2H-indazole-7-carboxamide 2,2,2-trifluoroacetate], for which the AC50 in experiment [1] and in experiment [2] was > 10000 nM in each case. Moreover, the half-maximal inhibitory concentration (IC50) in experiment [1], in experiment [2], in experiment [3] and in experiment [4] was > 10000 nM in each case. Besides, the GI50 in experiment [5] is > 10000 nM.

Take `COc1cc2c(N3CCC(NC4CC4)CC3)ccc(C(=O)Nc3cc(C)c4nc(C)cn4n3)n2n1` [Compound 695, 4-[4-(cyclopropylamino)-1-piperidyl]-N-(2,8-dimethylimidazo[1,2-b]pyridazin-6-yl)-2-methoxy-pyrazolo[1,5-a]pyridine-7-carboxamide]: the half-maximal activity concentration (AC50) in experiment [1] and in experiment [2] was 1000 to 10000 nM in each case. The IC50 in experiment [1], in experiment [2], in experiment [3] and in experiment [4] was 1000 to 10000 nM throughout. Also, the GI50 in experiment [5] fell in the range of 1000 to 10000 nM.

With `COc1cc2nn(C)cc2cc1NC(=O)c1cc(C)c(N2CCC(NC3CC3)CC2)c2cn(C)nc12` [Compound 696], the AC50 in experiment [1] and in experiment [2] was > 10000 nM throughout. For the same compound, the IC50 in experiment [1], in experiment [2], in experiment [3] and in experiment [4] was > 10000 nM throughout. For the same compound, in experiment [5], the GI50 fell in the range of 1000 to 10000 nM.

As to `COc1cc2c(N3C[C@H](C)N[C@@H](C)C3)ccc(C(=O)Nc3cc(F)c4nn(C)cc4c3)n2n1` [Compound 697, 4-[(3S,5S)-3,5-dimethylpiperazin-1-yl]-N-(7-fluoro-2-methyl-indazol-5-yl)-2-methoxy-pyrazolo[1,5-a]pyridine-7-carboxamide], the concentration at half-maximal activity (AC50) in experiment [1] and in experiment [2] was < 100 nM in each case. Besides, the half-maximal inhibitory concentration (IC50) in experiment [1] is 100 to 1000 nM; in experiment [2], < 100 nM; in experiment [3] it was 100 to 1000 nM; in experiment [4], < 100 nM. For the same compound, in experiment [5], the GI50 is < 100 nM.

For `COc1cc2c(N3C[C@H](C)N[C@@H](C)C3)ccc(C(=O)Nc3cc4cn(C)nc4cc3OC)n2n1` [Compound 698, 4-[(3S,5S)-3,5-dimethylpiperazin-1-yl]-2-methoxy-N-(6-methoxy-2-methyl-indazol-5-yl) pyrazolo[1,5-a]pyridine-7-carboxamide], the AC50 in experiment [1] was 1000 to 10000 nM; in experiment [2], < 100 nM. Besides, the half-maximal inhibitory concentration (IC50) is 1000 to 10000 nM in experiment [1], < 100 nM in experiment [2], 1000 to 10000 nM in experiment [3] and < 100 nM in experiment [4]. The GI50 in experiment [5] is 100 to 1000 nM.

As for `CNc1nc2c(C(=O)Nc3cc(F)c4nn(C)cc4c3)ccc(N3C[C@H](C)N[C@@H](C)C3)c2s1` [Compound 699, 7-[(3S,5S)-3,5-dimethylpiperazin-1-yl]-N-(7-fluoro-2-methyl-indazol-5-yl)-2-(methylamino)-1,3-benzothiazole-4-carboxamide], the AC50 in experiment [1] is 100 to 1000 nM; in experiment [2], < 100 nM. Further, the IC50 in experiment [1] was 100 to 1000 nM; in experiment [2], < 100 nM; in experiment [3] it was 100 to 1000 nM; in experiment [4], < 100 nM. Besides, the GI50 in experiment [5] was < 100 nM.

As to `C[C@H]1CN(c2ccc(C(=O)Nc3cc(F)c4nn(C)cc4c3)c3nc(N)sc23)C[C@H](C)N1` [Compound 700, 2-amino-7-[(3S,5S)-3,5-dimethylpiperazin-1-yl]-N-(7-fluoro-2-methyl-indazol-5-yl)-1,3-benzothiazole-4-carboxamide], the results for the AC50 in experiment [1] and in experiment [2] were 100 to 1000 nM and < 100 nM, respectively. The IC50 is 100 to 1000 nM in experiment [1], < 100 nM in experiment [2], 100 to 1000 nM in experiment [3] and < 100 nM in experiment [4]. The GI50 in experiment [5] is 100 to 1000 nM.

Consider `CCNC1CCN(c2cc(F)c(C(=O)Nc3cn4ccnc4cc3OC)c3nn(C)cc23)CC1` [Compound 701, 4-[4-(ethylamino)-1-piperidyl]-6-fluoro-N-(7-methoxyimidazo[1,2-a]pyridin-6-yl)-2-methyl-indazole-7-carboxamide], for which the AC50 in experiment [1] was > 10000 nM; in experiment [2], 100 to 1000 nM. For the same compound, the IC50 in experiment [1] is > 10000 nM; in experiment [2] it was 100 to 1000 nM; in experiment [3] it was > 10000 nM; in experiment [4] it was 100 to 1000 nM. For the same compound, in experiment [5], the GI50 was > 10000 nM.

On to `Cc1cn2cc(NC(=O)c3ccc(N4CCC(NC5CC5)CC4)c4cn(C)nc34)nc2c(CCS(C)(=O)=O)n1` [Compound 702], for which the AC50 in experiment [1] is > 10000 nM; in experiment [2], 1000 to 10000 nM. Besides, the IC50 in experiment [1] was > 10000 nM; in experiment [2], 1000 to 10000 nM; in experiment [3], > 10000 nM; in experiment [4], 1000 to 10000 nM. The GI50 in experiment [5] was > 10000 nM.

On to `Cc1cn2cc(NC(=O)c3ccc(N4CCC(NC5CC5)CC4)c4cn(C)nc34)nc2c(CN(C)S(C)(=O)=O)n1` [Compound 703, 4-(4-(cyclopropylamino)piperidin-1-yl)-2-methyl-N-(6-methyl-8-((N-methylmethylsulfonamido)methyl)imidazo[1,2-a]pyrazin-2-yl)-2H-indazole-7-carboxamide 2,2,2-trifluoroacetate], for which the AC50 in experiment [1] and in experiment [2] was > 10000 nM each time. In addition, the IC50 in experiment [1], in experiment [2], in experiment [3] and in experiment [4] was > 10000 nM in each case. Besides, the GI50 in experiment [5] is > 10000 nM.

For the compound `CCNC1CCN(c2ccc(C(=O)Nc3cc(F)c4nn(C)cc4c3)c3nc(OC)sc23)CC1` [Compound 704, 7-(4-(ethylamino)piperidin-1-yl)-N-(7-fluoro-2-methyl-2H-indazol-5-yl)-2-methoxybenzo[d]thiazole-4-carboxamide 2,2,2-trifluoroacetate], the figures for the AC50 in experiment [1] and in experiment [2] were 100 to 1000 nM and < 100 nM, respectively. The IC50 in experiment [1] was 100 to 1000 nM; in experiment [2] it was < 100 nM; in experiment [3] it was 100 to 1000 nM; in experiment [4], < 100 nM. In experiment [5], the GI50 lay in the range of 100 to 1000 nM.

Turning to `COc1nc2c(C(=O)Nc3cc(F)c4nc(C)cn4c3)ccc(N3C[C@H](C)N[C@@H](C)C3)c2s1` [Compound 705, 7-[(3S,5S)-3,5-dimethylpiperazin-1-yl]-N-(8-fluoro-2-methyl-imidazo[1,2-a]pyridin-6-yl)-2-methoxy-1,3-benzothiazole-4-carboxamide], the AC50 is 100 to 1000 nM in experiment [1] and < 100 nM in experiment [2]. The IC50 in experiment [1] is 100 to 1000 nM; in experiment [2], < 100 nM; in experiment [3] it was 100 to 1000 nM; in experiment [4], < 100 nM. Moreover, in experiment [5], the GI50 was < 100 nM.

As to `C[C@H]1CN(c2ccc(C(=O)Nc3cc(F)c4nn(C)cc4c3)c3nc(CNS(C)(=O)=O)sc23)C[C@H](C)N1` [Compound 706, 7-[(3S,5S)-3,5-dimethylpiperazin-1-yl]-N-(7-fluoro-2-methyl-indazol-5-yl)-2-(methanesulfonamidomethyl)-1,3-benzothiazole-4-carboxamide], the AC50 in experiment [1] was 100 to 1000 nM; in experiment [2] it was < 100 nM. The IC50 in experiment [1], in experiment [2], in experiment [3] and in experiment [4] was 100 to 1000 nM throughout. Also, the GI50 in experiment [5] is 100 to 1000 nM.

Take `C[C@H]1CN(c2ccc(C(=O)Nc3cc(F)c4nn(C)cc4c3)c3nc(CN)sc23)C[C@H](C)N1` [Compound 707, 2-(aminomethyl)-7-[(3S,5S)-3,5-dimethylpiperazin-1-yl]-N-(7-fluoro-2-methyl-indazol-5-yl)-1,3-benzothiazole-4-carboxamide]: the results for the AC50 in experiment [1] and in experiment [2] were 100 to 1000 nM and < 100 nM, respectively. The IC50 is 1000 to 10000 nM in experiment [1], < 100 nM in experiment [2], 1000 to 10000 nM in experiment [3] and < 100 nM in experiment [4]. Also, the GI50 in experiment [5] was in the range of 100 to 1000 nM.

With `Cn1cc2cc(NC(=O)c3cc(F)c(N4CCC(NC5CC5)CC4)c4cn(C)nc34)cc(F)c2n1` [Compound 708, 4-[4-(cyclopropylamino)-1-piperidyl]-5-fluoro-N-(7-fluoro-2-methyl-indazol-5-yl)-2-methyl-indazole-7-carboxamide], the values for the AC50 in experiment [1] and in experiment [2] were > 10000 nM and 1000 to 10000 nM, respectively. For the same compound, the IC50 in experiment [1], in experiment [2], in experiment [3] and in experiment [4] was > 10000 nM throughout. In experiment [5], the GI50 was 1000 to 10000 nM.
